Experimental findings from PubChem BioAssay AID434941 (Johns Hopkins Ion Channel Center, 2010) are described below.

Broadly, the EC50 is the concentration that produces a half-maximal response.

The target in the test is Short transient receptor potential channel 4 (Mus musculus) (UniProt Q9QUQ5). As to the kind of experiment: potentiation of DAMGO-evoked TRPC4 calcium signal – cell-based, HEK293 TRPC4/mu-opioid, Fluo-4 calcium, EC20 DAMGO, dose response (AID 434941).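 Further: calcium entry triggered by an EC20 dose of DAMGO at the co-expressed mu-opioid receptor.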 Particulars: HEK293 TRPC4/mu-opioid cells, Fluo-4 calcium fluorescence.
Chain of Short transient receptor potential channel 4 (Mus musculus) (Q9QUQ5 whole entry, looked up): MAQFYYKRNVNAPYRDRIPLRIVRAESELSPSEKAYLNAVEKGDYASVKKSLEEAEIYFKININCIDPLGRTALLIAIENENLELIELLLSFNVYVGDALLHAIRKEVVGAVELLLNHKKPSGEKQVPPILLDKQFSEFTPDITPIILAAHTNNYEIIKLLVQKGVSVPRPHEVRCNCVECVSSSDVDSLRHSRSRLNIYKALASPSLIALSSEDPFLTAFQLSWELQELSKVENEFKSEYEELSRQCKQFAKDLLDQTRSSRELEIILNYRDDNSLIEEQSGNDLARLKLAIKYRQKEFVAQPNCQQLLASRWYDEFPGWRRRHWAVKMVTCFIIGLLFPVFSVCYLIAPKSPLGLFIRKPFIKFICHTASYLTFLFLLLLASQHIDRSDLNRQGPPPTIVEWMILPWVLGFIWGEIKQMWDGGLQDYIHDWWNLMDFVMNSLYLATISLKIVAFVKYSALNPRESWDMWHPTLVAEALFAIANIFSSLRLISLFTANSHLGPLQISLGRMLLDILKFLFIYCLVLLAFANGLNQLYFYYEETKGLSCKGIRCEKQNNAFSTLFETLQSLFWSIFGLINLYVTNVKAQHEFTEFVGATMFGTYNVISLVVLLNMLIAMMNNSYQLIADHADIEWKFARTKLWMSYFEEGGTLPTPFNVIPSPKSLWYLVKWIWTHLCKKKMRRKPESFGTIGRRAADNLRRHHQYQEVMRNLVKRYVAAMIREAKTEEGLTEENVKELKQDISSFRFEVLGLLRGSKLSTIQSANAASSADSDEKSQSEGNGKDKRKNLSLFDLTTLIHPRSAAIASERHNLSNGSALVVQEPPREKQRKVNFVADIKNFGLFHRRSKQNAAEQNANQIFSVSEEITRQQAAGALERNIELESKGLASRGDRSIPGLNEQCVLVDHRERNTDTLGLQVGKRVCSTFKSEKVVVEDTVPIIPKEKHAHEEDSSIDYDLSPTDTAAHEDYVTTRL

As for `Cn1c(O)c(/C=N/NC(=O)c2cc3ccccc3cc2O)c2ccccc21`, the EC50 was 5.96 µM.
